In patent publication US7923440B2, “Method of treating or preventing immune mediated disorders and pharmaceutical formulation for use therein” (Pantarhei Bioscience B.V., priority 2002, dated 2011):

What was measured:
[1] = test system: ovariectomized adult rats; assay: Vaginal cornification bioassay in ovariectomized rats; assay type: in vivo, rat; details: for Number of Rats Exhibiting Estrogenic Response/Number of Rats Treated: sc, Day 7
Excerpt: Uterine weight increase in the rat is more commonly used as a measure of estrogenicity. […] In the early 1920s it was discovered that follicular fluid from the pig ovary contained a factor(s) that caused cornification/keratinization of the vaginal epithelium in the rat (Allen and Doisy, 1923, JAMA, 81, 819-821; Allen and Doisy, 1924, Am. J. Physiol., 69, 577-588). The so-called vaginal cornification response in rats subsequently provided a bioassay for testing estrogenicity. Vaginal epithelial cornification/keratinization in ovariectomized rats can be produced only by compounds considered to be true estrogens (Jones et al, 1973, Fert. Steril. 24, 284-291). […] Adult intact female CD rats were ovariectomized to induce estrogen deficiency. […] Castrate vaginal smears are indicative that complete ovariectomy was achieved. Treatment commenced following completion of the 7 days of smearing (day 0=first day of dosing). Animals were dosed, once daily for 7 consecutive days. Daily vaginal lavages continued to be obtained for 7 days after dosing was initiated in order to detect vaginal cornification, as an indication of an estrogenic response. A drop of vaginal washings was placed on a glass slide and examined by light microscopy to detect the presence or absence of cornified epithelial cells. Vaginal lavages were obtained prior to dosing on days 0-6 and prior to necropsy on day 7. The vaginal cornification bioassay was performed in order to determine the estrogenic profile of E4 when given subcutaneously (sc) to ovariectomized adult rats. E2 was used as a positive control. The vehicle (10% ethanol/sesame oil) served as the negative control. Steroids were dissolved in absolute ethanol and then brought to the final concentration with sesame oil (10% ethanol in sesame oil). […] The vaginal cornification bioassay was performed in order to determine the estrogenic profile of E4 when given orally (po) to ovariectomized adult rats. EE was used as a positive control. The vehicle (10% ethanol/sesame oil) served as the negative control. […]

[2] = target: T1, human ERα (Homo sapiens, UniProt P03372); assay: Competitive steroid binding assay, ERα; details: relative preference for binding to ERα protein, from Ki values
T1 sequence (P03372 1-595): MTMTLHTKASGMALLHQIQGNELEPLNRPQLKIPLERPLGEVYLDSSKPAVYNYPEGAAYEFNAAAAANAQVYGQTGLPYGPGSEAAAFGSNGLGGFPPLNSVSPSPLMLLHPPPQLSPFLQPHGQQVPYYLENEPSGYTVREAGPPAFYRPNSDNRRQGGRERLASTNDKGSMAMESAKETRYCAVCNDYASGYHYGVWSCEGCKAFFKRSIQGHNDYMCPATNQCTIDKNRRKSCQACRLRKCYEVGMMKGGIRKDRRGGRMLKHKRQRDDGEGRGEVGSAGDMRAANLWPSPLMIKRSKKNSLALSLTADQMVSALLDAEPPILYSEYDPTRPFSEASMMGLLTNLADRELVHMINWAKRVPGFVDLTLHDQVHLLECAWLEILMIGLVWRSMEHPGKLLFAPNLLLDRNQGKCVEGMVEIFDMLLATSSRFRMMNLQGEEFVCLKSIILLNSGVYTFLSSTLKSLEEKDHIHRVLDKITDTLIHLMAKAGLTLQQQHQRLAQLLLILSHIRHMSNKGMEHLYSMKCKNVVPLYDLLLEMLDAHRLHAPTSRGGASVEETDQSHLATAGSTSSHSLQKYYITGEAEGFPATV

[3] = target: T2, human sex Hormone Binding Globulin (SHBG) (Homo sapiens, UniProt P04278); assay: Competitive steroid-binding assay for SHBG
T2 construct: made in house; host or cells: transgenic mouse (serum)
T2 sequence (P04278 30-402): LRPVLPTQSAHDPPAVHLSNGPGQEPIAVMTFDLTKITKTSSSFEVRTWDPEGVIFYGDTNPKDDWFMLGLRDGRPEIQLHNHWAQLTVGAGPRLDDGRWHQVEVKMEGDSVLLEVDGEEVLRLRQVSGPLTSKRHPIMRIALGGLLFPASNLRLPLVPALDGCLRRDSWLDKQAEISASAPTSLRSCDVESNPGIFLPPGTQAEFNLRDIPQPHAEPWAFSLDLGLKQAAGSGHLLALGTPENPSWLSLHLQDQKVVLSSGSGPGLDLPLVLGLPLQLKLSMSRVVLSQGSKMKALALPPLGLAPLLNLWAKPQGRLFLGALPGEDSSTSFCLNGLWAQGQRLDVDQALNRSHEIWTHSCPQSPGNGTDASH
Procedure: Human SHBG was treated for 30 min at room temperature with a dextran-coated charcoal (DCC) suspension in phosphate buffered saline (PBS) to remove any steroid ligand. After centrifugation (2,000×g for 10 min) to sediment the DCC, the supernatant containing the human SHBG was diluted in PBS to a concentration of 1 nM based on its steroid binding capacity.
The average amounts of [^3H]labeled ligands bound to SHBG at each concentration of competitor (B) were expressed as a percentage of the average amounts of [^3H]labeled ligands bound to SHBG in the absence of competitor (B0), and were plotted against the concentration of competitor in each assay tube.

[4] = test system: SJL/J mice with experimental autoimmune encephalomyelitis (EAE); assay: PLP139-151 induced EAE in SJL/J mice, oral treatment; assay type: in vivo; details: for EAE incidence / mean cumulative EAE score versus vehicle / mean cumulative EAE score: day 0-42; for mean cumulative EAE score: vehicle 17.4±5.0; for clinical EAE score in second phase (relapse): day 26 until day 42; for mean maximal clinical (disability) score: vehicle 1.8±0.3; for mean day of onset of EAE: vehicle day 12
[5] = test system: B10.PL mice with experimental autoimmune encephalomyelitis (EAE); assay: MBP induced EAE in B10.PL mice; assay type: in vivo, mouse
[6] = test system: nonpregnant ewes; details: intravenously administered, Levine et al. 1984; cited from earlier work
[7] = test system: estrogen receptors in the human endometrium; details: cited from earlier work
[8] = ovariectomized female B10.PL mice, sc and oral 0.1-3.0 mg/kg/day, 40 days

## C[C@]12CC[C@@H]3c4ccc(O)cc4CC[C@H]3[C@@H]1[C@@H](O)[C@@H](O)[C@@H]2O [E4, 1,3,5 (10)-estratrien-3,15α,16α,17β-tetrol]
[1]; amount of animals responding at days 1-3, even at low doses (e.g. 0.1 mg/kg/day)
  onset of vaginal cornification, po versus sc: faster in po-treated than in sc-treated animals
[1]; 1.0 mg/kg/day, 1 mg/kg/day
  Number of Rats Exhibiting Estrogenic Response/Number of Rats Treated: all rats
[1]; 3.0 mg/kg/day, 3 mg/kg/day
  Number of Rats Exhibiting Estrogenic Response/Number of Rats Treated: all rats
[2]
  Relative ERα/ERβ preference: 400%
[3]; [3H]DHT as labeled ligand
  binding to human SHBG: does not bind at all
[3]; [3H]estradiol as labeled ligand
  binding to human SHBG: does not bind at all
[3]; comparison among tested steroids, order ethinylestradiol, 17β-estradiol, testosterone, 5α-dihydrotestosterone
  relative binding affinity for human SHBG: negligible
[4]; oral 0.1 mg/kg/day
  disease onset of EAE versus vehicle: trend of delayed disease onset as compared to vehicle-treated mice, but this was not statistically significant
  mean maximal clinical score versus vehicle: did not show statistically significant differences
  EAE incidence: 70%
  mean cumulative EAE score versus vehicle: did not show statistically significant differences
[4]; oral 0.3 mg/kg/day
  disease onset of EAE versus vehicle: trend of delayed disease onset as compared to vehicle-treated mice, but this was not statistically significant
  mean maximal clinical score versus vehicle: did not show statistically significant differences
  EAE incidence: 80%
  mean cumulative EAE score versus vehicle: did not show statistically significant differences
[4]; oral 1 mg/kg/day
  EAE incidence: 33%
  mean cumulative EAE score: 3.9±1.8
  clinical EAE score in second phase (relapse): little evidence of disease activity
  mean maximal clinical (disability) score: 0.9±0.3
  mean day of onset of EAE: 14.7 days
[4]; oral 3 mg/kg/day
  EAE incidence: 40%
  mean cumulative EAE score: 5.8±2.9
  clinical EAE score in second phase (relapse): little evidence of disease activity
  mean maximal clinical (disability) score: 0.8±0.3
  mean day of onset of EAE: 15.7 days
[4]; oral once daily 0.1-3 mg/kg, 42 days
  side-effects (clinical symptoms other than EAE): did not induce any significant side-effects
[5]; non-castrated female and male B10.PL mice, daily sc and/or oral
  symptoms and severity of EAE: dose-dependently alleviate symptoms and severity of EAE
[5]; [8]
  number of afflicted animals and/or severity of EAE symptoms: dose-dependently reduced
  onset of EAE disease symptoms: dose-dependent effects in delaying the onset of EAE disease symptoms
[6]
  potency in uterine vasodilation relative to estriol and 17β-estradiol: 15 to 30 times less potent
[7]; Tseng et al. 1976
  relative binding constant compared to 17β-estradiol (100%): 6.25%
[7]; Tseng et al. 1978
  Relative binding to estrogen receptors, of 17β-estradiol: 1.5%
